Laboratory results: ChEMBL document CHEMBL1135156, “Synthesis of novel furo, thieno, and benzazetoazepines and evaluation of their cytotoxicity” (Bioorg Med Chem Lett, 2002)

Tests used:
PC-3 = assay: Inhibitory activity against PC-3 prostate cell line using sulforhodamine B (SRB) protein assay; type: functional, cell-based; details: Homo sapiens
MCF7 = assay: Inhibitory activity against MCF-7 breast cell line using sulforhodamine B (SRB) protein assay; type: functional, cell-based; details: Homo sapiens
U-251 = assay: Inhibitory activity against U251 CNS cell line using sulforhodamine B (SRB) protein assay; type: functional, cell-based; details: Homo sapiens
HCT-15 (Homo sapiens) = assay: Inhibitory activity against HCT-15 colon cell line using sulforhodamine B (SRB) protein assay
K562 = assay: Iinhibitory activity against K562 leukemia cell line using sulforhodamine B (SRB) protein assay; type: functional, cell-based; details: Homo sapiens
HCT-15 = assay: Inhibitory activity against HCT-15 colon cell line using sulforhodamine B (SRB) protein assay; type: functional, cell-based; details: Homo sapiens

Row | SMILES | IC50 (PC-3) [µM] | IC50 (MCF7) [µM] | IC50 (U-251) [µM] | IC50 (HCT-15 (Homo sapiens)) [µM] | IC50 (K562) [µM] | IC50 (HCT-15) [µM]
1 | COc1cccc2c1CCCN1C(=O)[C@@H](Oc3ccccc3)[C@]21SC | 21 | 33 | 25 | 19 | 23 | 
2 | CS[C@@]12c3cc(C)oc3CC(C)(C)CN1C(=O)[C@H]2Oc1ccccc1 | 53 | 47 | 47 |  | 31 | 56

Continued by falling IC50 (PC-3), values first:

Row | IC50 (PC-3) [µM] | IC50 (MCF7) [µM] | IC50 (U-251) [µM] | IC50 (HCT-15 (Homo sapiens)) [µM] | IC50 (K562) [µM] | IC50 (HCT-15) [µM] | SMILES
3 | 87 | > 100 | 40 |  | > 100 | > 100 | CS[C@@]12c3cc(C)n(-c4ccc(I)cc4)c3CC(C)(C)CN1C(=O)[C@H]2Oc1ccccc1
4 | 32 |  | 0.09 |  | 0.28 | 0.23 | COc1cccc2c1C(=O)c1c(O)c3c(c(O)c1C2=O)C[C@@](O)(C(=O)CO)C[C@@H]3O[C@H]1C[C@H](N)[C@H](O)[C@H](C)O1 [DOXORUBICIN]
5 | 11 | 41 | 33 |  | 39 | 26 | CS[C@@]12c3cc(C)sc3CC(C)(C)CN1C(=O)[C@H]2Oc1ccccc1
